molecular target: Recombinant human KRAS protein containing the G12C amino acid substitution (Homo sapiens (Human), UniProt P01116, G12C); assay: HTRF nucleotide exchange assay, KRAS G12C; format: biochemical; settings: 180 minute incubation with compound at room temperature; at least two independent replicates; read-out: KRAS G12C HTRF NEA IC50
Protocol: The capacity of compounds to bind KRAS G12C and KRAS wildtype was quantified using a HTRF nucleotide exchange assay. Recombinant human KRAS protein (5 nM; aa1-188 KRAS WT or KRAS containing the G12C amino acid substitution, an N-terminal 6×His-tag and leader sequence), and 2 nM Europium-labeled anti-6×His antibody were mixed in assay buffer (10 mM HEPES pH7.3, 75 mM NaCl, 5 mM MgCl2, 0.05% BSA, 0.0025% NP-40 and 100 mM KF) with various concentrations of compound in a 384-well plate and a volume of 5 μL. After a 180 minute incubation at room temperature, 5 μl of 200 nM EDA-GTP-DY647P1 diluted in assay buffer was added to the plate. Following 30-minute incubation at room temperature, time-resolved fluorescence was measured on a PerkinElmer Envision plate reader. DMSO (0.3%) and unlabeled GDP (1 μM) or equivalent tool compound were used to generate the Max and Min assay signals, respectively. Data was analysed using a four-parameter logistic model to calculate IC50 values, with at least two independent replicates were performed for each compound.

Chain of Recombinant human KRAS protein containing the G12C amino acid substitution (P01116 other isoform, or with tags, fused parts or gaps G12C): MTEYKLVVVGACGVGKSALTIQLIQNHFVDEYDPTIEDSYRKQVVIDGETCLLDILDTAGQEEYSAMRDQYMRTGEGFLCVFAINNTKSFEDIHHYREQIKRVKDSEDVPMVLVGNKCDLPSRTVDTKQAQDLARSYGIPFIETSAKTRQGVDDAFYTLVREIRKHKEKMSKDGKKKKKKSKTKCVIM

| IC50 [nM] | SMILES |
| --- | --- |
| ≤ 1000 | C=CC(=O)N1CC2(CC(c3nc(-c4ccc(N5CCOCC5)cc4)c(-c4cc(O)cc5ccccc45)n3C)C2)C1 [Example 27, 1-[6-[5-(3-hydroxy-1-naphthyl)-1-methyl-4-(4-morpholinophenyl)imidazol-2-yl]-2-azaspiro[3.3]heptan-2-yl]prop-2-en-1-one] |
| ≤ 1000 | C=CC(=O)N1CC2(CC(c3nc(-c4ccc(CN5CCOCC5)cc4)c(-c4cc(O)cc5ccccc45)n3C)C2)C1 [Example 30, 1-[6-[5-(3-hydroxy-1-naphthyl)-1-methyl-4-[4-(morpholinomethyl)phenyl]imidazol-2-yl]-2-azaspiro[3.3]heptan-2-yl]prop-2-en-1-one] |
| ≤ 1000 | C=CC(=O)N1CC2(CC(c3nc(-c4ccc(CN5CCN(C)CC5)cc4)c(-c4cc(O)cc5ccccc45)n3C)C2)C1 [Example 31, 1-[6-[5-(3-hydroxy-1-naphthyl)-1-methyl-4-[4-[(4-methylpiperazin-1-yl)methyl]phenyl]imidazol-2-yl]-2-azaspiro[3.3]heptan-2-yl]prop-2-en-1-one] |
| ≤ 1000 | C=CC(=O)N1CC2(CC(c3nc(-c4ccc(N5CCOCC5)cc4)c(-c4cc(O)cc5ccccc45)n3CC)C2)C1 [Example 33, 1-[6-[1-ethyl-5-(3-hydroxy-1-naphthyl)-4-(4-morpholinophenyl)imidazol-2-yl]-2-azaspiro[3.3]heptan-2-yl]prop-2-en-1-one] |

Further lines, the compound ahead of its results:

| SMILES | IC50 [nM] |
| --- | --- |
| C=CC(=O)N1CC2(CC(c3nc(-c4ccc(C(=O)NCC(F)(F)F)c(OC)c4)c(-c4c(C)ccc5[nH]ncc45)n3C)C2)C1 [Example 23, 2-methoxy-4-[1-methyl-5-(5-methyl-1H-indazol-4-yl)-2-(2-prop-2-enoyl-2-azaspiro[3.3]heptan-6-yl)95midazole-4-yl]-N-(2,2,2-trifluoroethyl)benzamide] | 1000 to 10000 |
| C=CC(=O)N1CC2(CC(c3nc(-c4ccc5c(cnn5C)c4)c(-c4c(C)ccc5[nH]ncc45)n3CC)C2)C1 [Example 24, 1-[6-[1-ethyl-4-(1-methylindazol-5-yl)-5-(5-methyl-1H-indazol-4-yl)imidazol-2-yl]-2-azaspiro[3.3]heptan-2-yl]prop-2-en-1-one] | ≤ 1000 |
| C=CC(=O)N1CC2(CC(c3nc(-c4c(C)ccc5[nH]ncc45)c(-c4ccc5c(cnn5C)c4)n3C)C2)C1 [Example 25, 1-[6-[1-methyl-5-(1-methylindazol-5-yl)-4-(5-methyl-1H-indazol-4-yl)imidazol-2-yl]-2-azaspiro[3.3]heptan-2-yl]prop-2-en-1-one] | ≥ 10000 |
| C=CC(=O)N1CC2(CC(c3nc(-c4ccc5c(cnn5C)c4)c(-c4cc(O)cc5ccccc45)n3C)C2)C1 [Example 26, 1-[6-[5-(3-hydroxy-1-naphthyl)-1-methyl-4-(1-methylindazol-5-yl)imidazol-2-yl]-2-azaspiro[3.3]heptan-2-yl]prop-2-en-1-one] | ≤ 1000 |
| C=CC(=O)N1CC2(CC(c3nc(-c4ccc5nn(C)cc5c4)c(-c4cc(O)cc5ccccc45)n3C)C2)C1 [Example 28, 1-[6-[5-(3-hydroxy-1-naphthyl)-1-methyl-4-(2-methylindazol-5-yl)imidazol-2-yl]-2-azaspiro[3.3]heptan-2-yl]prop-2-en-1-one] | ≤ 1000 |
| C=CC(=O)N1CC2(CC(c3nc(-c4ccc5c(cnn5C)c4)c(-c4cc(O)cc5ccccc45)n3CC)C2)C1 [Example 32, 1-[6-[1-ethyl-5-(3-hydroxy-1-naphthyl)-4-(1-methylindazol-5-yl)imidazol-2-yl]-2-azaspiro[3.3]heptan-2-yl]prop-2-en-1-one] | ≤ 1000 |
| C=CC(=O)N1CC2(CC(c3nc(-c4ccc5c(cnn5C)c4)c(-c4cc(O)cc5cccc(Cl)c45)n3C)C2)C1 [Example 35, 1-[6-[5-(8-chloro-3-hydroxy-1-naphthyl)-1-methyl-4-(1-methylindazol-5-yl)imidazol-2-yl]-2-azaspiro[3.3]heptan-2-yl]prop-2-en-1-one] | ≤ 1000 |
